Laboratory results reported in ChEMBL document CHEMBL4425196, “Synthesis of novel flavone derivatives possessing substituted benzamides and their biological evaluation against human cancer cells” (Bioorg Med Chem Lett, 2016).
The source made the active and inactive calls. The rule behind the calls is not given here.

Assays:
HepG2 [1] = assay: Growth inhibition of human HepG2 cells at 10 uM by MTT assay relative to control; type: functional; settings: for inhibition of growth at 10 µM: read-out: GI
MCF7 [2] = assay: Growth inhibition of human MCF7 cells at 10 uM by MTT assay relative to control; type: functional; settings: for inhibition of growth at 10 µM: read-out: GI
HepG2 [3] = assay: Growth inhibition of human HepG2 cells by MTT assay; type: functional
MCF7 [4] = assay: Growth inhibition of human MCF7 cells by MTT assay; type: functional
[5] = Growth inhibition of human L-132 cells by MTT assay; type: cell-based, L132
[6] = Selectivity index, ratio of GI50 for human L-132 cells to GI50 for human MCF7 cells
[7] = Selectivity index, ratio of GI50 for human L-132 cells to GI50 for human HepG2 cells

| GI50 (HepG2 [3]) | GI50 (MCF7 [4]) | Structure (SMILES) | inhibition of growth at 10 µM (HepG2 [1]) | inhibition of growth at 10 µM (MCF7 [2]) | GI50 [5] | RatioGI50 [6] | RatioGI50 [7] | growth inhibition (GI) (HepG2 [1]) | growth inhibition (GI) (MCF7 [2]) |
| --- | --- | --- | --- | --- | --- | --- | --- | --- | --- |
| > 100 µM | 35.6 µM | COc1cccc(C(=O)Nc2cccc(-c3cc(=O)c4c(O)c(OC)c(OC)cc4o3)c2)c1 | > 50% | > 50% | – | – | – | – | – |
| 8.85 µM | 9.65 µM | COc1cc2oc(-c3cccc(NC(=O)c4ccc(Br)cc4)c3)cc(=O)c2c(OC)c1OC | > 50% | > 50% | – | – | – | – | – |
| 7.53 µM | 15.3 µM | COc1ccccc1C(=O)Nc1cccc(-c2cc(=O)c3c(OC)c(OC)c(OC)cc3o2)c1 | > 50% | > 50% | – | – | – | – | – |
| 22.2 µM | 6.87 µM | COc1ccc(C(=O)Nc2cccc(-c3cc(=O)c4c(OC)c(OC)c(OC)cc4o3)c2)cc1 | > 50% | > 50% | – | – | – | – | – |
| 5.94 µM | 9.12 µM | COc1cc2oc(-c3cccc(NC(=O)c4ccc5c(c4)OCO5)c3)cc(=O)c2c(OC)c1OC | > 50% | > 50% | 18 µM | 2 - 3 | 2 - 3 | – | – |
| 23.1 µM | 55 µM | COc1cc2oc(-c3cccc(NC(=O)c4ccccc4Br)c3)cc(=O)c2c(OC)c1OC | > 50% | > 50% | – | – | – | – | – |
| 7.06 µM | 7.67 µM | COc1cccc(C(=O)Nc2cccc(-c3cc(=O)c4c(OC)c(OC)c(OC)cc4o3)c2)c1 | > 50% | > 50% | 20.9 µM | 2 - 3 | 2 - 3 | – | – |
| 47.2 µM | 14.7 µM | COc1cc2oc(-c3cccc(NC(=O)c4ccc(F)cc4)c3)cc(=O)c2c(OC)c1OC | > 50% | > 50% | – | – | – | – | – |
| 61.1 µM | 10.6 µM | COc1cc2oc(-c3cccc(NC(=O)c4ccc(C(F)(F)F)cc4)c3)cc(=O)c2c(OC)c1OC | > 50% | > 50% | – | – | – | – | – |
| 11.9 µM | 41.7 µM | COc1cc2oc(-c3cccc(NC(=O)c4cccc(C#N)c4)c3)cc(=O)c2c(OC)c1OC | > 50% | > 50% | – | – | – | – | – |
| 11.7 µM | 12.1 µM | COc1cc2oc(-c3cccc(NC(=O)c4ccccc4)c3)cc(=O)c2c(OC)c1OC | > 50% | > 50% | – | – | – | – | – |
| 44.8 µM | 6.94 µM | COc1cc2oc(-c3cccc(NC(=O)c4cccc(Br)c4)c3)cc(=O)c2c(O)c1OC | > 50% | > 50% | – | – | – | – | – |
| 9.75 µM | 8.32 µM | COc1cc2oc(-c3cccc(NC(=O)c4ccc(C)cc4)c3)cc(=O)c2c(OC)c1OC | > 50% | > 50% | – | – | – | – | – |
| 10.2 µM | 12.7 µM | COc1cc2oc(-c3cccc(NC(=O)c4ccc(C#N)cc4)c3)cc(=O)c2c(OC)c1OC | > 50% | > 50% | – | – | – | – | – |
| 10.9 µM | 6.34 µM | COc1cc2oc(-c3cccc(NC(=O)c4cccc(Br)c4)c3)cc(=O)c2c(OC)c1OC | > 50% | > 50% | – | – | – | – | – |
| 18.8 µM | 20.1 µM | COc1cc2oc(-c3cccc(NC(=O)c4ccc([N+](=O)[O-])cc4)c3)cc(=O)c2c(OC)c1OC | > 50% | > 50% | – | – | – | – | – |
| 21.3 µM | 8.78 µM | COc1cc2oc(-c3cccc(NC(=O)c4ccc(Cl)cc4)c3)cc(=O)c2c(OC)c1OC | > 50% | > 50% | – | – | – | – | – |

Second part, the compound before the results:

| Structure (SMILES) | GI50 (HepG2 [3]) | GI50 (MCF7 [4]) | inhibition of growth at 10 µM (HepG2 [1]) | inhibition of growth at 10 µM (MCF7 [2]) | GI50 [5] | RatioGI50 [6] | RatioGI50 [7] | growth inhibition (GI) (HepG2 [1]) | growth inhibition (GI) (MCF7 [2]) |
| --- | --- | --- | --- | --- | --- | --- | --- | --- | --- |
| COc1cc([C@@H]2c3cc4c(cc3[C@@H](O[C@@H]3O[C@@H]5CO[C@@H](C)O[C@H]5[C@H](O)[C@H]3O)[C@H]3COC(=O)[C@H]23)OCO4)cc(OC)c1O [ETOPOSIDE] | – | – | – | – | 10.4 µM | – | – | – | – |
| COc1ccccc1C(=O)Nc1cccc(-c2cc(=O)c3c(O)c(OC)c(OC)cc3o2)c1 | > 100 µM | 1.83 µM | > 50% | > 50% | – | – | – | – | – |
| COc1cc2oc(-c3ccccc3)cc(=O)c2c(OC)c1OC [BAICALEIN TRIMETHYL ETHER] | 54 µM | 91.4 µM | > 50% | > 50% | – | – | – | – | – |
| COc1cc2oc(-c3ccc(NC(=O)c4ccc(C)cc4)cc3)cc(=O)c2c(O)c1OC | – | – | < 50% | < 50% | – | – | – | – | – |
| COc1cc2oc(-c3ccc(NC(=O)c4ccc(Br)cc4)cc3)cc(=O)c2c(O)c1OC | – | – | < 50% | < 50% | – | – | – | – | – |
| COc1ccc(C(=O)Nc2cccc(-c3cc(=O)c4c(O)c(OC)c(OC)cc4o3)c2)cc1 | > 100 µM | 2.05 µM | > 50% | > 50% | – | – | – | – | – |
| COc1cc2oc(-c3ccc(NC(=O)c4cccc(Br)c4)cc3)cc(=O)c2c(O)c1OC | – | – | 40% | < 50% | – | – | – | – | – |
| COc1ccccc1C(=O)Nc1ccc(-c2cc(=O)c3c(O)c(OC)c(OC)cc3o2)cc1 | – | – | < 50% | < 50% | – | – | – | – | – |
| COc1cccc(C(=O)Nc2ccc(-c3cc(=O)c4c(O)c(OC)c(OC)cc4o3)cc2)c1 | – | – | < 50% | < 50% | – | – | – | – | – |
| COc1ccc(C(=O)Nc2ccc(-c3cc(=O)c4c(O)c(OC)c(OC)cc4o3)cc2)cc1 | – | – | < 50% | < 50% | – | – | – | – | – |
| COc1cc2oc(-c3ccc(NC(=O)c4cccc(C#N)c4)cc3)cc(=O)c2c(O)c1OC | – | – | < 50% | < 50% | – | – | – | – | – |
| COc1cc2oc(-c3ccc(NC(=O)c4ccc(C#N)cc4)cc3)cc(=O)c2c(O)c1OC | – | – | < 50% | < 50% | – | – | – | – | – |
| COC(=O)c1ccc(C(=O)Nc2ccc(-c3cc(=O)c4c(O)c(OC)c(OC)cc4o3)cc2)cc1 | – | – | < 50% | < 50% | – | – | – | – | – |
| COc1cc2oc(-c3ccc(NC(=O)c4ccccc4Br)cc3)cc(=O)c2c(O)c1OC | – | – | < 50% | < 50% | – | – | – | – | – |
| O=c1cc(-c2ccccc2)oc2cc(O)c(O)c(O)c12 | – | – | – | – | – | – | – | inactive | inactive |
| COc1cc2oc(-c3ccc(NC(=O)c4ccc(F)cc4)cc3)cc(=O)c2c(O)c1OC | – | – | < 50% | < 50% | – | – | – | – | – |
| COc1cc2oc(-c3ccc(NC(=O)c4ccccc4)cc3)cc(=O)c2c(O)c1OC | – | – | < 50% | < 50% | – | – | – | – | – |
| COC(=O)c1ccc(C(=O)Nc2cccc(-c3cc(=O)c4c(OC)c(OC)c(OC)cc4o3)c2)cc1 | > 100 µM | 30.3 µM | > 50% | > 50% | – | – | – | – | – |
| COc1cc2oc(-c3ccc(NC(=O)c4ccc(Cl)cc4)cc3)cc(=O)c2c(O)c1OC | – | – | < 50% | < 50% | – | – | – | – | – |
| COc1cc2oc(-c3ccc(NC(=O)c4ccc5c(c4)OCO5)cc3)cc(=O)c2c(O)c1OC | – | – | 40% | < 50% | – | – | – | – | – |
| COc1cc2oc(-c3ccc(NC(=O)c4ccc(C(F)(F)F)cc4)cc3)cc(=O)c2c(O)c1OC | – | – | < 50% | < 50% | – | – | – | – | – |
| COc1cc2oc(-c3cccc(NC(=O)c4ccc5c(c4)OCO5)c3)cc(=O)c2c(O)c1OC | 45.1 µM | 8.47 µM | > 50% | > 50% | – | – | – | – | – |
| COc1cc2oc(-c3ccc(NC(=O)c4ccc([N+](=O)[O-])cc4)cc3)cc(=O)c2c(O)c1OC | – | – | 40% | < 50% | – | – | – | – | – |
